The source of these data is patent EP0431659B1, “Pharmaceutical compositions of tebufelone” (THE PROCTER & GAMBLE COMPANY, priority 1989, dated 1991).

The solubility is the concentration that dissolves in the medium under given conditions. Read a high solubility as a readily soluble substance.

Data set [1] in a line: absorption from the gastrointestinal tract after peroral dosing. It counts as in vivo. The conditions noted are these: dosed in conventional solid dosage forms, such as tablets or powders in capsules.
A short description of data set [2]: water solubility of tebufelone. It counts as physicochemical. The conditions noted are these: water (essentially water-insoluble).

For `C#CCCCC(=O)c1cc(C(C)(C)C)c(O)c(C(C)(C)C)c1` [tebufelone, 1-[3,5-bis(1,1-dimethylethyl)-4-hydroxyphenyl]-5-hexyn-1-one], the “absorption of tebufelone from the gastrointestinal tract” value in data set [1] is “quite low”. Moreover, in data set [2], the solubility is less than 1 µg/mL.
